# Laboratory results as given in PMC5871770, “Tlr1612 is the major repressor of cell aggregation in the light-color-dependent c-di-GMP signaling network of Thermosynechococcus vulcanus” (Scientific Reports, 2018).
# How the values were obtained:
# [1] = target: T1, Tll0007-PilZ (FRET biosensor mCyPet-Tll0007 PilZ-mYPet) (Thermostichus vulcanus, UniProt E5RST0); test: FRET biosensor titration (F527/F475); assay type: binding; conditions: 31 °C, pH 7.5, 100 mM NaCl, 10% glycerol, 50 nM protein; PilZ domain
# T1 construct: gene Tvtll0007; N-terminal His tag, pET28V, E. coli expressed
# T1 sequence (E5RST0 entry or part of it): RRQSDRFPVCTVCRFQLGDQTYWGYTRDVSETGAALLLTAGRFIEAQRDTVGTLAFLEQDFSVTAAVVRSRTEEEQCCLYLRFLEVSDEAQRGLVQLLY
# [2] = target: T2, full-length YcgR of Escherichia coli (Escherichia coli, UniProt P76010); test: FRET biosensor titration (F527/F475); assay type: binding; conditions: read-out: affinity
# T2 construct: full length between mCyPet and mYPet (FRET reporters); N-terminal His tag, pET28V, E. coli expressed
# T2 sequence (P76010 1-244): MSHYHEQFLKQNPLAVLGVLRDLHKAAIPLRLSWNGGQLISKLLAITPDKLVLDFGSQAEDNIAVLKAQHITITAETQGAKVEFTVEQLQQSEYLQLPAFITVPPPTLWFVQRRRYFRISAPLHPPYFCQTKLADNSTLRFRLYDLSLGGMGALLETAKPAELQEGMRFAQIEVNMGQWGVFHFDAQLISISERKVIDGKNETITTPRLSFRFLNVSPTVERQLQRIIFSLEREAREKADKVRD
# [3] = target: T3, Tll0007-PilZ (FRET biosensor mCyPet-Tll0007 PilZ-mYPet) (Thermostichus vulcanus, UniProt E5RST0, R605A); test: FRET biosensor titration (F527/F475); assay type: binding; conditions: 31 °C, pH 7.5, 100 mM NaCl, 10% glycerol, 50 nM protein; c-di-GMP 10 nM to 1 mM; PilZ RXXXR motif mutant
# T3 construct: gene Tvtll0007; N-terminal His tag, pET28V, E. coli expressed
# T3 sequence (E5RST0 entry or part of it R605A): as the sequence (E5RST0 entry or part of it) above, with R6A counted along it
# SesA = target: T4, SesA; test: EnzChek pyrophosphate assay, initial rate of diguanylate cyclase; assay type: biochemical; conditions: 31 °C, pH 7.5, 20 mM MgCl2, 100 µM GTP, 0.2 µM protein, blue-light pre-irradiated; allosteric product inhibition at I-site (RXXD)
# T4 construct: PCC 6803 from pTCH2031V; pre-irradiated with blue light
structure (smiles),measurement,setting,value
"Nc1nc2c(ncn2[C@@H]2O[C@@H]3CO[P@](=O)(O)O[C@H]4[C@@H](O)[C@H](n5cnc6c(=O)[nH]c(N)nc65)O[C@@H]4CO[P@](=O)(O)O[C@H]3[C@H]2O)c(=O)[nH]1 [c-di-GMP, bis-(3′-5′)-cyclic diguanylic acid]",Kd,[1],63900 ± 5100 nM
same,Kd,[2],420 ± 80 nM
same,no FRET increase (no binding detected),[3],R605A lacked the corresponding increase in FRET efficiency upon c-di-GMP addition
same,IC50,SesA,1070 ± 130 nM
